{"source": "patent US12065692B2", "about": "“Optical super-multiplexing by polyynes” (The Trustees of Columbia University in the City of New York, priority 2017, dated 2024)", "tested_on": "live HeLa cells", "assay": "Live-cell SRS imaging of organelle-targeted polyynes and co-localization with fluorescent organelle markers", "type": "cell-based", "protocol": "FIG. 9 is live-cell SRS imaging of organelle-targeted polyynes and co-localization with fluorescent organelle markers. […] High co-localizations are also observed between organelle-targeted polyynes with commercial fluorescent markers;\nHeLa cells are cultured on a glass coverslip in a 4-well plate for 24 h, and […] Carbow2141 Mito is added in the media for 1 h at 37° C. Cells are washed with PBS for three times before imaging. For co-localization, 100 nM MitoTracker Deep Red is used to stain mitochondria for 1 h.\nCells were cultured on a glass coverslip in a 4-well plate for 24 h, and 4 μM Carbow2141 Lyso is added to cells for 30 min at 37° C. Cells are washed with PBS for three times before imaging. For co-localization, 100 nM LysoTracker Red (Invitrogen, L7528) is used to stain lysosome for 30 min.\nCell are incubated with 3 μM Carbow2141 PM in the culture media for 20 min at 37° C. and are washed with PBS for three times before imaging. For co-localization, 0.5 μg/mL CellMask Deep Red (Invitrogen, C10046) is used to stain cell membrane for 5 min.\nCells were cultured on a glass coverslip in a 4-well plate for 24 h and incubated with 10 μM Carbow2226 ER for 2 h at 37° C. Cells were washed with PBS for three times before imaging. For colocalization, 1 μM ERTracker Green (Invitrogen, E34251) was used to stain endoplasmic reticulum for 2 h. […]"}
{"smiles": "O=C(NCCC[P+](c1ccccc1)(c1ccccc1)c1ccccc1)OCc1ccc(C#CC#CC#CC#Cc2ccccc2)cc1", "note": "[4-yne Mito]", "values": [{"measurement": "organelle localization / co-localization with fluorescent markers", "result": "specific localization to mitochondria"}]}
